Assay results from publication PMC4959957 (British Journal of Pharmacology, 2016).

Biological target: T1, Asu-ACR-16 (Ascaris suum, UniProt A0A0K0QSL7)
T1 sequence (A0A0K0QSL7 24-504): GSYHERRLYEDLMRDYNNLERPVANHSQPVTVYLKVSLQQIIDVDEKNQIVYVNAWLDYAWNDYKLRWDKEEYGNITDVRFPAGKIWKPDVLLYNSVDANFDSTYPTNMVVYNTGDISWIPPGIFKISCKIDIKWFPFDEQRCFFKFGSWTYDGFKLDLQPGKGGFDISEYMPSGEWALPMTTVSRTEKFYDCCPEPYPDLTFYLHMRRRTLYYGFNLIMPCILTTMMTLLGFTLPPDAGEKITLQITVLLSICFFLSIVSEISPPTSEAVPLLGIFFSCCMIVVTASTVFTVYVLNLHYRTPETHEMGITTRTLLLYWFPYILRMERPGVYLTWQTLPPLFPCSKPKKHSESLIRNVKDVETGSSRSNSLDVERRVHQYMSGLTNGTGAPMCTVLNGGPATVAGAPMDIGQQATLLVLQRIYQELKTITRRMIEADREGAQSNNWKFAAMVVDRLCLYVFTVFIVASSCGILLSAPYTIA
Experiment: two-electrode voltage clamp, agonist concentration-response in Xenopus oocytes
Format: cell-based

Q: For CC(=O)OCC[N+](C)(C)C [ACh], which EC50 is on record?
A: Its EC50 is 5.9 ± 0.1 µM.

Q: With CN1CCC[C@H]1c1cccnc1 [nic, nicotine] as the molecule, how does the EC50 read?
A: Its EC50 is 4.5 ± 0.2 µM.
